Assays:
[1] = system: NMDA receptor 1-(NR1) luciferase; test: NMDA receptor 1 (NR1)-luciferase reporter in BTSCs; assay type: cell-based, human; conditions: after 24 hours, compared to vehicle
Method: CD133+ glioblastoma brain tumor stem cells (BTSCs) from an explanted human tumor specimen were treated with 20 μM Isx-9 (FIG. 9C) or vol/vol DMSO (vehicle) control (FIG. 9B).

MEF2 = test: gel shift assay of MEF2 binding to MEF2 response element of NR1 gene; assay type: cell-based, rat; conditions: versus vehicle-treated cells
Method: Protein blotting, immunoprecipitation, and gel shift assay. For protein blotting analysis, whole cell lysates were prepared from HCN cells using RIPA buffer (Tris-HCl, 50 mM, pH 7.4; NP-40, 1%; Na-deoxycholate, 0.25%; NaCl, 150 mM; EDTA, 1 mM; PMSF, 1 mM; aprotinin, leupeptin, pepstatin, 1 mg/ml; Na3VO4, 1 mM; NaF, 1 mM). For nuclear and cytoplasmic extracts, HCNs were lysed in hypotonic buffer (Hepes, 10 mM, pH 8; MgCl2, 1.5 mM; KCl, 10 mM; DTT, 1 mM). Nuclei was then isolated and resuspended in the same buffer with NaCl, 420 mM; EDTA, 0.2 mM; glycerol, 25%; NP-40, 1%; PMSF, 1 mM; aprotinin, leupeptin, pepstatin, 1 mg/ml. Protein concentration in centrifugation-clarified cell lysates were measured by the BCA Protein Assay Kit (Pierce) and equal amounts of protein were separated on a 4-12% SDS-PAGE and transferred to Hybond PVDF (Amersham Biosciences). Protein blots were done using the NuPage gel and transfer system with 4-20% Tris-Bis gels (Invitrogen). […]

## O=C(NC1CC1)c1cc(-c2cccs2)on1 [Isx-9, N-cyclopropyl-5-(thiophen-2-yl)isoxazole-3-carboxamide]
[1]
  activation of NR1-luciferase in BTSCs: Dose-dependent activation
MEF2
  total MEF2 binding to MEF2 response element within the NR1 gene: similar

From patent publication US8193225B2, “Isoxazole amides, derivatives and methods of chemical induction of neurogenesis” (priority 2006, dated 2012)
